Results on 18 compounds are retold here after patent publication US5668141A, “Trans-2,6-,3,6-and 4,6-diaza-5,6,6a,7,8,12b-hexahydrobenzo[c]phenanthrene compounds as dopamine agonists” (Abbott Laboratories, priority 1996, dated 1997).

The target in one test is T1, human D1 receptor (Homo sapiens, UniProt P21728).
T1 construct: expressed in transfected cells; host or cells: HEK-D1 cells (HEK cells expressing the human D1 clone)
Nature of the test: Adenylate cyclase activity (cAMP stimulation in HEK-D1 cells). In kind it is cell-based. The settings on record: read-out: IA (relative intrinsic activity to dopamine). The procedure:
Adenylate cyclase activity: Human D1 receptor.
The interaction of dopamine or a dopamine D-1 receptor agonist with the D-1 receptor causes a dose-dependent increase in the adenylate cyclase-catalyzed conversion of adenosine triphosphate (ATP) to cyclic adenosine monophosphate (cAMP). The functional activity of the compounds of the invention was determined by assaying their ability to either stimulate the enzyme adenylate cyclase to produce cAMP (agonist activity). Assays were conducted in 24-well or 48-well tissue culture plates. The assay buffer consisted of DPBS containing CaCl2 and MgCl2, 0.1% glucose, 0.5 mM IBMX, 0.004% ascorbic acid and 10 μM propranolol to inhibit potential cross activation of the endogenous β-receptor. Culture medium was removed, and HEK-D1 cell was washed once with assay buffer, and 400 μl fresh assay buffer was added for 10 min. Next, 100 μl of dopamine or dopamine agonist, dissolved in assay buffer, was added to the cell for an additional 15 min, and incubations were terminated with 500 μL 0.2N HCl. cAMP contents were determined by RIA using the automated Attoflo™ system (Rockville, Md.).
The hD1c ED50 level is a measure of the potency, showing the concentration (nM) at which a 50% response is obtained; a lower number indicates a higher potency. High intrinsic activity (IA) indicates the activity of the compound as a dopamine agonist.

Test [1] concerns striatal dopamine receptors. The test is described as follows: Rotation behavior, rat rotational model (6-hydroxydopamine unilateral lesion). In kind it is in vivo. Conditions: sc, 6-hydroxydopamine-lesioned rats.
Description: The behavioral assay used was based on the rat rotational model. Striatal dopamine was depleted by the intracranial injection of 6-hydroxydopamine, a neurotoxin which specifically destroys catecholaminergic neurons. […] This unilateral lesioning of dopamine-containing neurons causes the post-synaptic dopamine receptors to become supersensitive to dopaminergic stimulation in behavioral assays. […] Agonist activity was measured by the ability of the test compound to induce rotation.
A lower number indicates a higher potency.
The subject of the next test is schizophrenia. Conditions: cited from earlier work; for antipsychotic effect: low doses.
A further test has as its system Parkinson's disease. Conditions: alone, some early Parkinson's disease patients; cited from earlier work.
For a further test, the system named is acute renal failure. The settings on record: in combination with diuretics, patients; cited from earlier work.
A further test concerns dopamine receptor. Conditions: cited from earlier work.
Test [2] has as its system neural feeding mechanisms. Conditions: rats; cited from earlier work.

Where a name gives a salt, the structure may show the parent alone.

T1 sequence (P21728 whole entry): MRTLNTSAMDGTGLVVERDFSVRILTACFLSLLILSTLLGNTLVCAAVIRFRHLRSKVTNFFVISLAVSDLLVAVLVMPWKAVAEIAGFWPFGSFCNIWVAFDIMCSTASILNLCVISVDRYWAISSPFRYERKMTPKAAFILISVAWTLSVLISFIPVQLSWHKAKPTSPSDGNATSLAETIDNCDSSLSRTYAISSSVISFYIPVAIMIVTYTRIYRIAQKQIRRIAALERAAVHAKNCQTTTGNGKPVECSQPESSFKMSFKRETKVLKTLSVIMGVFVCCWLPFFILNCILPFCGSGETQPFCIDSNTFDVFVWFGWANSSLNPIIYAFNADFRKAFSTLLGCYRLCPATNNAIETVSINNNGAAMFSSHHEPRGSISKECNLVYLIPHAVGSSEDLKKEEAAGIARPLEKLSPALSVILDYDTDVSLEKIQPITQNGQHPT

For the compound `Cc1cnc2c(c1)[C@H]1c3cc(O)c(O)cc3CC[C@@H]1NC2` (relative stereo) [Example 7, trans-4,6-diaza-5,6,6a,7,8,12b-hexahydro-2-methylbenzo[c]phenanthrene 10,11-diol dihydrobromide], on human D1 receptor, the Emax is 156%.

On to `Oc1cc2c(cc1O)[C@@H]1c3ccc(F)nc3CN[C@H]1CC2` (relative stereo) [Example 5, trans-4,6-diaza-3-fluoro-5,6,6a,7,8,12 b-hexahydrobenzo[c]phenanthrene 10,11-diol dihydrobromide], for which, at human D1 receptor, the Emax is 141%. For the same compound, the “Rotation behavior EC50” value in test [1] amounted to 0.82 µmol/kg.

On to `CCCCc1cnc2c(c1)[C@H]1c3cc(O)c(O)cc3CC[C@@H]1NC2` (relative stereo) [Example 8, trans-4,6-diaza-5,6,6a,7,8,12b-hexahydro-2-butylbenzo[c]phenanthrene 10,11-diol dihydrobromide], for which the Emax at human D1 receptor was determined as 118%.

In the case of `Oc1cc2c(cc1O)[C@@H]1c3cc4c(nc3CN[C@H]1CC2)CCCC4` (relative stereo) [Example 10, trans-4,6-diaza-5,6,6a,7,8,12b-hexahydro-2,3-cyclohexenobenzo[c]phenanthrene 10,11-diol dihydrobromide], the Emax on human D1 receptor worked out at 136%.

In the case of `Oc1cc2c(cc1O)[C@@H]1c3cccnc3CN[C@H]1CC2` (relative stereo) [Example 1, trans-4,6-diaza-5,6,6a,7,8,12b-hexahydrobenzo[c]phenanthrene 10,11-diol dihydrobromide], the Emax on human D1 receptor worked out at 125%.

As to `Cc1cncc2c1CN[C@H]1CCc3cc(O)c(O)cc3[C@H]21` (relative stereo) [Example 14, trans-2,6-diaza-4-methyl-5,6,6a,7,8,12b-hexahydrobenzo[c]phenanthrene 10,11-diol dihydrobromide], the Emax on human D1 receptor turned out to be 75%.

As for `CN1CCc2cccc3c2[C@H]1Cc1ccc(O)c(O)c1-3` [apomorphine], the antipsychotic effect entry in the test with schizophrenia is given as “produce antipsychotic effects”.

Turning to `Oc1cc2c(cc1O)[C@@H]1c3cncc(F)c3CN[C@H]1CC2` (relative stereo) [Example 12, trans-2,6-diaza-4-fluoro-5,6,6a,7,8,12b-hexahydrobenzo[c]phenanthrene 10,11-diol dihydrobromide], the Emax on human D1 receptor was found to be 126%.

In the case of `CC(C)C[C@H]1C(=O)N2CCC[C@H]2[C@]2(O)O[C@](NC(=O)[C@@H]3C=C4c5cccc6[nH]c(Br)c(c56)C[C@H]4N(C)C3)(C(C)C)C(=O)N12` [Bromocriptine], in the test with Parkinson's disease, the “effect on Parkinson's disease symptoms” value is reported as “relieve Parkinson's disease symptoms in some early Parkinson's disease patients”. Also, the antipsychotic effect entry in the test with schizophrenia was “produce antipsychotic effects”.

In the case of `CCCc1ccc2c(n1)CN[C@H]1CCc3cc(O)c(O)cc3[C@H]21` (relative stereo) [Example 3, trans-4,6-diaza-5,6,6a,7,8,12b-hexahydro-3-propylbenzo[c]phenanthrene 10,11-diol dihydrobromide], the Emax on human D1 receptor worked out at 116%. Further, the “Rotation behavior EC50” value in test [1] amounted to 0.14 µmol/kg.

For the compound `Cc1cc2c(nc1C)CN[C@H]1CCc3cc(O)c(O)cc3[C@H]21` (relative stereo) [Example 9, trans-4,6 diaza-5,6,6a,7,8,12b-hexahdro-2,3-dimethylbenzo[c]phenanthrene 10,11-diol dihydrobromide], the Emax on human D1 receptor was 134%.

For the compound `Oc1cc2c(cc1O)[C@@H]1c3cnccc3CN[C@H]1CC2` (relative stereo) [Example 11, trans-2,6-diaza-5,6,6a,7,8,12b-hexahydrobenzo[c]phenanthrene 10,11-diol dihydrobromide], on human D1 receptor, the Emax is 81%.

Consider `NCCc1ccc(O)c(O)c1` [dopamine], for which the “effect on acute renal failure” value in the test on acute renal failure is listed as “reverse radio-contrast media-induced acute renal failure”.

In the case of `Oc1cc2c(cc1O)[C@H]1c3ccccc3CN[C@@H]1CC2` (racemic) [dihydrexidine], the dopamine agonist activity result with dopamine receptor was “active as a dopamine agonist”.

Regarding `Oc1cc2c(cc1O)[C@@H]1c3ccncc3CN[C@H]1CC2` (relative stereo) [Example 13, trans-3,6-diaza-5,6,6a,7,8,12b-hexahydrobenzo[c]phenanthrene 10,11-diol dihydrobromide], the Emax at human D1 receptor was 131%.

For the compound `COc1ccc2c(n1)CN[C@H]1CCc3cc(O)c(O)cc3[C@H]21` (relative stereo) [Example 4, trans-4,6-diaza-5,6,6a,7,8,12b-hexahydro-3-methoxybenzo[c]phenanthrene 10,11-diol dihydrobromide], the Emax at human D1 receptor was 114%.

Turning to `Oc1cc2c(cc1O)C(c1ccccc1)CNCC2` (stereo not shown) [SKF 38393], the “effect on food intake” value in test [2] is listed as “decrease food intake by rats”. In the test with schizophrenia (in conjunction with haloperidol), the “effect on side-effects of haloperidol” value was “ameliorate the undesired side-effects of the haloperidol”.

Consider `Cc1ccc2c(n1)CN[C@H]1CCc3cc(O)c(O)cc3[C@H]21` (relative stereo) [Example 2, trans-4,6-diaza-5,6,6a,7,8,12b-hexahydro-3-methylbenzo[c]phenanthrene 10,11-diol dihydrobromide], for which, on human D1 receptor, the Emax was found to be 121%.
